Test results from patent US9090593B2, “Bicyclic compounds as Pim inhibitors” (AMGEN INC., priority 2010, dated 2015).

Molecular target: T1, full length recombinant Pim-1 protein (Homo sapiens, UniProt P11309)
T1 construct: by full length recombinant Pim-1, Pim-2, or Pim-3 protein; hexahistidine tag followed by a thrombin cleavage site (N); made in house; host or cells: Sf9 (baculovirus) or E. coli (pET28)
Test: Pim-1 enzyme assay (HTRF, phosphorylation of biotinylated-BAD (S112) peptide)
Assay type: biochemical
Details: read-out: Pim_1_IC50
Source text: (§1) These cDNAs were used as templates in PCR reactions to produce full-length DNA clones of the PIMs. […] PCR products were digested with […] and EcoRI for Pim-1 and BamHI and EcoRI for Pim-2 and ligated into a modified baculovirus transfer vector (pFastBac1) cleaved with BamHI and EcoRI. For bacterial expression, the same cleaved PCR products encoding Pim-1 or Pim-2 were ligated into a modified E. coli expression vector pET28(a) cleaved with BamHI and EcoRI Amino-terminal hexahistidine tags followed by a thrombin cleavage site were previously added to the vectors using standard methods of molecular biology. Recombinant baculoviruses expressing Pim-1 or Pim-2 were made using standard methods (Fastbac manual, Invitrogen, Carlsbad, Calif.). Infection of Sf9 cells was done at an m.o.i. of greater than 5 for 24-48 h. Cells were harvested by centrifugation and frozen at −80 C. For E. coli expression, cells carrying pET28-His6-Th-Pim-1 or pET28-His6-Th-Pim-2 were picked from a single colony and grown o/n in LB media. The o/n culture was used to inoculate a 2 liter flask with 500 mL media. This was grown o/n and used to inoculate 15-20 liters of Terrific Broth in a New Brunswick Scientific fermentor. The E. coli were grown at 37° C. to and OD600>1.6. The temperature was dropped to 18° C. and o/n expression was induced with 0.5 mM IPTG. Cells were harvested by centrifugation and frozen at −80° C.
(§2) This step was repeated 3× and the resin was transferred to a 2.5 cm glass column. Ten column volumes of wash buffer (0.05 M HEPES, pH 8.0, 0.1 M NaCl, 0.01 M 2-mercaptoethanol, 10% (w/v) glycerol) were applied to the resin followed by 10 column volumes of elution buffer (0.05 M HEPES, pH 8.0, 0.25 M NaCl, 0.01 M 2-mercaptoethanol, 10% (w/v) glycerol, 0.1 M imidazole). Fractions were analyzed by SDS-PAGE and those containing the protein of interest were pooled and concentrated. The concentrated protein was applied to an Amersham Superdex 75 (XK 26/60) column equilibrated in 0.025 M Tris-HCl, pH 7.5, 0.1 M NaCl, 0.01 M 2-mercaptoethanol, 10% (w/v) glycerol. […] Fractions containing the monomeric protein of interest were pooled, concentrated to ˜2 mg/mL, and stored at −80° C.
(§3) The phosphorylation of biotinylated-BAD (S112) peptide by full length recombinant Pim-1, Pim-2, or Pim-3 protein was detected with streptavidin:Allophycocyanin (APC) conjugate and a europium (Eu) labeled antibody directed against phosphorylated-BAD (S112). […] The fluorescence is directly proportional to the amount of phosphorylated BAD peptide present in the reaction.
(§4) A reference compound was included on each assay plate in order to validate that plate; on one plate of every assay run, two additional reference compounds were included.
(§5) The final buffer conditions were as follows: 60 mM Hepes, pH 7.0, 0.05% BSA, 2 mM DTT. […] The reaction was stopped by the addition of 3 mM EDTA, and fluorescence was measured by an HTRF® Rubystar microplate reader. For each plate, percent of control (POC) values were calculated for each well. Values for the IC50 IP were estimated using a standard 4-parameter logistic model.

T1 sequence (P11309 whole entry): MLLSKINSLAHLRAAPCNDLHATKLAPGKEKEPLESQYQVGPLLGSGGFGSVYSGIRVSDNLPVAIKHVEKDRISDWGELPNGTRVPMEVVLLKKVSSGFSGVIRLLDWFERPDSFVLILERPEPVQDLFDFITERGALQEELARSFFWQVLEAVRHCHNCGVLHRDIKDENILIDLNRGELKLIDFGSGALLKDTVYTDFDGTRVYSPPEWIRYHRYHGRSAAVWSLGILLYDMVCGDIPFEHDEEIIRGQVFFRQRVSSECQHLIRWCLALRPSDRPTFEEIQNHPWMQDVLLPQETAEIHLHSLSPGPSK

Compound	IC50
C[C@H]1COCCN1c1ccc2[nH]nc(-c3cncc(O[C@H]4CNCCC45CC5)n3)c2c1 [Example 402]	30 nM
C[C@@H]1COCCN1c1ccc2[nH]nc(-c3cncc(O[C@H]4CNCCC45CC5)n3)c2c1 [Example 403]	70 nM
Oc1cncc(-c2n[nH]c3ccc(-c4ccccc4F)cc23)n1 [Example 435]	322 nM
O[C@@H]1CN(c2cncc(-c3n[nH]c4ccc(-c5c(F)cccc5F)cc34)n2)C[C@@H]1O [Example 448]	105 nM
OC1CN(c2cncc(-c3n[nH]c4ccc(-c5c(F)cccc5F)cc34)n2)CC1O (stereo not drawn) [Example 449]	159 nM
OC1CN(c2cncc(-c3n[nH]c4ccc(-c5c(F)cccc5F)cc34)n2)CC1O (stereo not drawn) [Example 450]	159 nM
Nc1ncc(-c2ccc3[nH]nc(-c4cncc(O[C@H]5CNCCC56CC6)n4)c3c2)cn1 [Example 464]	4 nM
CNC(=O)c1ccc2[nH]nc(-c3cncc(NC4CCNCC4)n3)c2c1 [Example 471]	171 nM
CNC(=O)c1ccc2[nH]nc(-c3cncc(O[C@@H]4CCCNC4)n3)c2c1 [Example 478]	180 nM
COc1cc(N[C@@H]2CCCNC2)nc(-c2c[nH]c3ccc(-c4c(F)cccc4F)cc23)n1 [Example 479]	112 nM
CNC(=O)c1ccc2[nH]nc(-c3cncc(N4CCC(N)CC4)n3)c2c1 [Example 480]	106 nM
COC(=O)c1ccc2[nH]nc(-c3nccc(NC4CCNCC4)n3)c2c1 [Example 485]	26 nM
COC(=O)c1ccc2[nH]nc(-c3nccc(N[C@@H]4CCCNC4)n3)c2c1 [Example 486]	72 nM
COC(=O)c1ccc2[nH]nc(-c3nccc(N4CCC(N)CC4)n3)c2c1 [Example 488]	46 nM

Now from value to molecule:

IC50	Compound
159 nM	O=C1COCCN1c1ccc2[nH]nc(-c3cncc(O[C@H]4CNCCC45CC5)n3)c2c1 [Example 405]
22 nM	Brc1ccc2[nH]nc(-c3cncc(O[C@H]4CNCCC45CC5)n3)c2c1 [Example 422]
20 nM	CN1CCC(Oc2cncc(-c3n[nH]c4ccc(-c5c(F)cccc5F)cc34)n2)CC1 [Example 445]
112 nM	COc1cc(N2CCC(N)CC2)nc(-c2n[nH]c3ccc(-c4c(F)cccc4F)cc23)n1 [Example 472]
30 nM	CNC(=O)c1ccc2[nH]nc(-c3cncc(N[C@@H]4CCCNC4)n3)c2c1 [Example 475]
444 nM	CN(C)C(=O)c1ccc2[nH]nc(-c3ccnc(N[C@@H]4CCCNC4)n3)c2c1 [Example 481]
374 nM	CN(C)C(=O)c1ccc2[nH]nc(-c3cncc(N4CCC(N)CC4)n3)c2c1 [Example 484]
159 nM	CN(C)C(=O)c1ccc2[nH]nc(-c3cncc(NC4CCNCC4)n3)c2c1 [Example 487]
46 nM	CN(C)c1nc(-c2c[nH]c3ccc(-c4c(F)cccc4F)cc23)cc(=O)[nH]1 [Example 492]
834 nM	COc1cc(-c2c[nH]c3ccc(-c4c(F)cccc4F)cc23)nc(O[C@@H]2CCCNC2)n1 [Example 493]

Molecular target: T2, full length recombinant Pim-2 protein (Homo sapiens, UniProt Q9P1W9)
T2 construct: by full length recombinant Pim-1, Pim-2, or Pim-3 protein; hexahistidine tag followed by a thrombin cleavage site (N); made in house; host or cells: Sf9 (baculovirus) or E. coli (pET28)
T2 sequence (Q9P1W9 whole entry): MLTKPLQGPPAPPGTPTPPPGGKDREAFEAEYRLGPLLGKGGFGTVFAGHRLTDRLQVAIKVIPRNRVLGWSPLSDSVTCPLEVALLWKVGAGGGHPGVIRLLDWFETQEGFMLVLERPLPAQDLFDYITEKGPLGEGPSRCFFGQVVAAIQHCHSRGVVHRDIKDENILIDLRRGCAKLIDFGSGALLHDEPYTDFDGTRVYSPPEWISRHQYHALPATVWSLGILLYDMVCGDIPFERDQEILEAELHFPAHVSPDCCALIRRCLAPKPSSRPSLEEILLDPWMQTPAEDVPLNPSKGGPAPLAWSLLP
Test: Pim-2 enzyme assay (HTRF, phosphorylation of biotinylated-BAD (S112) peptide)
Assay type: biochemical
Details: read-out: Pim2_IC50
Source text: as §1, §2, §3, §4, §5

Compound	IC50
C[C@H]1COCCN1c1ccc2[nH]nc(-c3cncc(O[C@H]4CNCCC45CC5)n3)c2c1 [Example 402]	39 nM
C[C@@H]1COCCN1c1ccc2[nH]nc(-c3cncc(O[C@H]4CNCCC45CC5)n3)c2c1 [Example 403]	58 nM
Oc1cncc(-c2n[nH]c3ccc(-c4ccccc4F)cc23)n1 [Example 435]	629 nM
O[C@@H]1CN(c2cncc(-c3n[nH]c4ccc(-c5c(F)cccc5F)cc34)n2)C[C@@H]1O [Example 448]	137 nM
OC1CN(c2cncc(-c3n[nH]c4ccc(-c5c(F)cccc5F)cc34)n2)CC1O (stereo not drawn) [Example 449]	639 nM
OC1CN(c2cncc(-c3n[nH]c4ccc(-c5c(F)cccc5F)cc34)n2)CC1O (stereo not drawn) [Example 450]	453 nM
Nc1ncc(-c2ccc3[nH]nc(-c4cncc(O[C@H]5CNCCC56CC6)n4)c3c2)cn1 [Example 464]	17 nM
CNC(=O)c1ccc2[nH]nc(-c3cncc(NC4CCNCC4)n3)c2c1 [Example 471]	329 nM
CNC(=O)c1ccc2[nH]nc(-c3cncc(O[C@@H]4CCCNC4)n3)c2c1 [Example 478]	> 1000 nM
COc1cc(N[C@@H]2CCCNC2)nc(-c2c[nH]c3ccc(-c4c(F)cccc4F)cc23)n1 [Example 479]	77 nM
CNC(=O)c1ccc2[nH]nc(-c3cncc(N4CCC(N)CC4)n3)c2c1 [Example 480]	203 nM
COC(=O)c1ccc2[nH]nc(-c3nccc(NC4CCNCC4)n3)c2c1 [Example 485]	26 nM
COC(=O)c1ccc2[nH]nc(-c3nccc(N[C@@H]4CCCNC4)n3)c2c1 [Example 486]	543 nM
COC(=O)c1ccc2[nH]nc(-c3nccc(N4CCC(N)CC4)n3)c2c1 [Example 488]	55 nM

Now from value to molecule:

IC50	Compound
447 nM	O=C1COCCN1c1ccc2[nH]nc(-c3cncc(O[C@H]4CNCCC45CC5)n3)c2c1 [Example 405]
82 nM	Brc1ccc2[nH]nc(-c3cncc(O[C@H]4CNCCC45CC5)n3)c2c1 [Example 422]
43 nM	CN1CCC(Oc2cncc(-c3n[nH]c4ccc(-c5c(F)cccc5F)cc34)n2)CC1 [Example 445]
617 nM	COc1cc(N2CCC(N)CC2)nc(-c2n[nH]c3ccc(-c4c(F)cccc4F)cc23)n1 [Example 472]
192 nM	CNC(=O)c1ccc2[nH]nc(-c3cncc(N[C@@H]4CCCNC4)n3)c2c1 [Example 475]
719 nM	CN(C)C(=O)c1ccc2[nH]nc(-c3ccnc(N[C@@H]4CCCNC4)n3)c2c1 [Example 481]
> 1000 nM	CN(C)C(=O)c1ccc2[nH]nc(-c3cncc(N4CCC(N)CC4)n3)c2c1 [Example 484]
217 nM	CN(C)C(=O)c1ccc2[nH]nc(-c3cncc(NC4CCNCC4)n3)c2c1 [Example 487]
109 nM	CN(C)c1nc(-c2c[nH]c3ccc(-c4c(F)cccc4F)cc23)cc(=O)[nH]1 [Example 492]
653 nM	COc1cc(-c2c[nH]c3ccc(-c4c(F)cccc4F)cc23)nc(O[C@@H]2CCCNC2)n1 [Example 493]
